PubChem BioAssay AID2060904 (Molecular Pharmacology Branch, DTP, NCI, 2025)
pIC50: −log10 of the molar value.

Tested on: 349418-098-R-PDC complex spheroid viability
Assay: Anticancer human tumor 349418-098-R-PDC patient-derived lung adenocarcinoma cell line growth inhibition [RAS]
Settings: for pIC50: curve of first compound; for viability, T/C: stronger effect = lower value
From the text: RAS pathway inhibitors in Combinations in Complex Spheroids
A high-throughput screen of multi-cell type tumor spheroids was designed to identify active combinations of RAS pathway inhibitors and targeted small molecules. Complex spheroids include a stromal component modeled by human endothelial cells (HUVEC) and fibroblasts modeled by human mesenchymal stem cells (MSCs). The concentration ranges selected for each drug and investigational agent were based upon clinically achievable concentrations if the clinical Cmax of the agent was known.
Compounds. The drugs and investigational agents: abemaciclib (NSC768073), cobimetinib (NSC768068), divarasib (GDC6063, NSC841802), docetaxel (NSC628503), GDC-1971 (RLY-1971, NSC841576), gemcitabine (NSC613327), inavolisib (NSC800729), ipatasertib (NSC767898), KB-0742 (NSC834161), MRTX-1133 (NSC836407), osimertinib (NSC779217), RMC-4630 (NSC839698), RMC-6236 (NSC851965), RMC-6291 (NSC852671), Ro-3306 (NSC812927), sapanisertib (NSC764658), SN-38 (NSC673596), staurosporine (NSC755774), SY5609 (NSC837396), and tovorafenib (DAY101, NSC766906), were obtained from the National Cancer Institute (NCI) Developmental Therapeutics Program Chemical Repository. The FDA-approved anticancer drug set is available from the NCI Developmental Therapeutics Program. […] The stock solutions were prepared in dimethyl sulfoxide (DMSO, Sigma-Aldrich, St. Louis, MO, cat. D2650) at 800-fold the tested concentration and stored at -70 degrees C prior to their use. All drugs and investigational agents were tested over a range starting from a high concentration at or near the clinical Cmax and decreasing in half-log increments. If the clinical Cmax for an agent had not been determined, the highest concentration tested was 10 microM.
Cell Culture. All cells were maintained in an incubator at 37 degrees C and 5% CO2 with 95% humidity. The PDC lines were cultured according to standard operating procedures established by the NCI PDMR. All PDCs were thawed and cultured in Matrigel-coated flasks prepared with a working solution of 1X Ham's F-12 nutrient mix, without supplementation (Invitrogen, Waltham, MA, cat. 11765054), 100 U/mL penicillin-streptomycin (Invitrogen, cat. 15140122), and 2.5% Matrigel (Corning Inc., Corning, NY, cat. 354248) for the first three passages. The 362531-283-R-J2-PDC and 782815-120-R-J1-PDC lines were cultured in 6C/Colon 1B media, which includes advanced DMEM/F-12 (Thermo Fisher Scientific, cat. 12634028), 10 mM HEPES (Thermo Fisher Scientific, cat. 15630080), 1X GlutaMAX supplement (Thermo Fisher Scientific, cat. 35050061), 0.1 mg/mL primocin (InvivoGen, San Diego, CA, cat. ant-pm-2), 10% defined fetal bovine serum, heat inactivated (HyClone Laboratories Inc., Logan, UT, cat. SH30070.03HI), 50% L-WRN conditioned media (ATCC, cat. CRL-3276), 1.25 mM N-Acetyl-L-cysteine (Sigma-Aldrich, cat. A9165), 10 mM nicotinamide (Sigma-Aldrich, cat. N0636), 1X B-27 supplement (Thermo Fisher Scientific, cat. 17504044), 1X N-2 supplement (Thermo Fisher Scientific, cat. 17502048), 50 ng/mL human EGF (Thermo Fisher Scientific, cat. PHG0311), and 10 microM Y-27632 dihydrochloride (Tocris Bioscience, cat. 1254). The K12877-001-R-J1-PDC line was cultured in 6I media, which includes all 6C/Colon 1B media plus 10 ng/mL human FGF-10 (PeproTech, cat. 100-26), 1 ng/mL human FGF-2 (PeproTech, cat. 100-18B), 1 µM prostaglandin E2 (Tocris Bioscience, cat. 2296), […] hydrocortisone (Sigma-Aldrich, cat. H4001), and […] bovine insulin (Sigma-Aldrich, cat. I6634). The K86415-001-R-J1-PDC line was cultured in 6D media, which includes all 6C/Colon 1B media components minus the L-WRN conditioned media. The 485176-168-R4-J1-PDC was cultured in PANC media, which includes all 6C/Colon 1B media plus 100 ng/mL human FGF-10 (PeproTech, cat. 100-26), 500 nM SB-431542 (Selleckchem, cat. S1067), and 10 nM gastrin (Tocris Bioscience, cat. 3006). […]

[1] = second compound 0.0316 µM, first compound 0.0316 µM
[2] = second compound 0.0316 µM, first compound 0.1 µM
[3] = second compound 0.0316 µM, first compound 0.316 µM
[4] = second compound 0.0316 µM, first compound 1 µM
[5] = second compound 0.1 µM, first compound 0.0316 µM
[6] = second compound 0.1 µM, first compound 0.1 µM
[7] = second compound 0.1 µM, first compound 0.316 µM
[8] = second compound 0.1 µM, first compound 1 µM
[9] = second compound 0.316 µM, first compound 0.0316 µM
[10] = second compound 0.316 µM, first compound 0.1 µM
[11] = second compound 0.316 µM, first compound 0.316 µM
[12] = second compound 0.316 µM, first compound 1 µM
[13] = second compound 1 µM, first compound 0.0316 µM
[14] = second compound 1 µM, first compound 0.1 µM
[15] = second compound 1 µM, first compound 0.316 µM
[16] = second compound 1 µM, first compound 1 µM
[17] = second compound 3.16 µM, first compound 0.0316 µM
[18] = second compound 3.16 µM, first compound 0.1 µM
[19] = second compound 3.16 µM, first compound 0.316 µM
[20] = second compound 3.16 µM, first compound 1 µM
[21] = second compound 10 µM, first compound 0.0316 µM
[22] = second compound 10 µM, first compound 0.1 µM
[23] = second compound 10 µM, first compound 0.316 µM
[24] = second compound 10 µM, first compound 1 µM
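Also: spheroids exposed to compound for seven days before viability readout.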

Molecule `CC1(O)CCCC1n1c(=O)c(C(F)F)cc2cnc(NC3CCN(S(C)(=O)=O)CC3)nc21` (centres undefined) + C#Cc1c(F)ccc2cc(O)cc(-c3ncc4c(N5CC6CCC(C5)N6)nc(OCC56CCCN5CC(F)C6)nc4c3F)c12 has a pIC50 (second compound 0.0316 µM) of 7.18, a pIC50 (second compound 0.1 µM) of 7.09 and a pIC50 (second compound 0.316 µM) of 7.06. The pIC50 (second compound 1 µM) was 7.28, the pIC50 (second compound 3.16 µM) was 7.10 and the pIC50 (second compound 10 µM) was greater than 7.50. For the same molecule, the viability, T/C [1] was 62.5%, the viability, T/C [2] was 43.8% and the viability, T/C [3] was 23%. The viability, T/C [4] was 27.6%, the viability, T/C (second compound 0.0316 µM, first compound 3.16 µM) was 23.2% and the viability, T/C (second compound 0.0316 µM, first compound 10 µM) was 3.27%. It also gave a viability, T/C [5] of 83.5%, a viability, T/C [6] of 41.3% and a viability, T/C [7] of 23.1%. The viability, T/C [8] was 16.2%, the viability, T/C (second compound 0.1 µM, first compound 3.16 µM) was 18.7% and the viability, T/C (second compound 0.1 µM, first compound 10 µM) was 3.67%. It also gave a viability, T/C [9] of 84.5%, a viability, T/C [10] of 41.7% and a viability, T/C [11] of 25.2%. For the same molecule, the viability, T/C [12] was 25.8%, the viability, T/C (second compound 0.316 µM, first compound 3.16 µM) was 20.1% and the viability, T/C (second compound 0.316 µM, first compound 10 µM) was 3.12%. The viability, T/C [13] was 60.5%, the viability, T/C [14] was 35.9% and the viability, T/C [15] was 28.9%. The viability, T/C [16] was 26.5%, the viability, T/C (second compound 1 µM, first compound 3.16 µM) was 19.9% and the viability, T/C (second compound 1 µM, first compound 10 µM) was 4.34%. For the same molecule, the viability, T/C [17] was 67.6%, the viability, T/C [18] was 41.9% and the viability, T/C [19] was 29.9%. It also gave a viability, T/C [20] of 25%, a viability, T/C (second compound 3.16 µM, first compound 3.16 µM) of 25.5% and a viability, T/C (second compound 3.16 µM, first compound 10 µM) of 4.16%. The viability, T/C [21] was 49.8%, the viability, T/C [22] was 12.9% and the viability, T/C [23] was 16.3%. The viability, T/C [24] was 14.4%, the viability, T/C (second compound 10 µM, first compound 3.16 µM) was 9.5% and the viability, T/C (second compound 10 µM, first compound 10 µM) was 1.44%.

Molecule `CCN1CCN(Cc2ccc(Nc3ncc(F)c(-c4cc(F)c5nc(C)n(C(C)C)c5c4)n3)nc2)CC1` + C#Cc1c(F)ccc2cc(O)cc(-c3ncc4c(N5CC6CCC(C5)N6)nc(OCC56CCCN5CC(F)C6)nc4c3F)c12 has a pIC50 (second compound 0.0316 µM) of 8.10, a pIC50 (second compound 0.1 µM) of 7.52 and a pIC50 (second compound 0.316 µM) of 7.74. For the same molecule, the pIC50 (second compound 1 µM) was 7.91, the pIC50 (second compound 3.16 µM) was 7.99 and the pIC50 (second compound 10 µM) was greater than 8.50. For the same molecule, the viability, T/C (second compound 0.0316 µM, first compound 0.00316 µM) was 66.8%, the viability, T/C (second compound 0.0316 µM, first compound 0.01 µM) was 38.2% and the viability, T/C [1] was 41.9%. It also gave a viability, T/C [2] of 25.9%, a viability, T/C [3] of 18% and a viability, T/C [4] of 16.3%. The viability, T/C (second compound 0.1 µM, first compound 0.00316 µM) was 76.2%, the viability, T/C (second compound 0.1 µM, first compound 0.01 µM) was 77.7% and the viability, T/C [5] was 47.6%. The viability, T/C [6] was 25.7%, the viability, T/C [7] was 22% and the viability, T/C [8] was 14.4%. It also gave a viability, T/C (second compound 0.316 µM, first compound 0.00316 µM) of 78.2%, a viability, T/C (second compound 0.316 µM, first compound 0.01 µM) of 59.9% and a viability, T/C [9] of 40.8%. The viability, T/C [10] was 28.9%, the viability, T/C [11] was 24.4% and the viability, T/C [12] was 16.2%. For the same molecule, the viability, T/C (second compound 1 µM, first compound 0.00316 µM) was 79.4%, the viability, T/C (second compound 1 µM, first compound 0.01 µM) was 49.6% and the viability, T/C [13] was 37.8%. The viability, T/C [14] was 33.5%, the viability, T/C [15] was 20.5% and the viability, T/C [16] was 19.9%. It also gave a viability, T/C (second compound 3.16 µM, first compound 0.00316 µM) of 74.1%, a viability, T/C (second compound 3.16 µM, first compound 0.01 µM) of 51.3% and a viability, T/C [17] of 32.8%. For the same molecule, the viability, T/C [18] was 29.1%, the viability, T/C [19] was 30.4% and the viability, T/C [20] was 16.6%. The viability, T/C (second compound 10 µM, first compound 0.00316 µM) was 26.7%, the viability, T/C (second compound 10 µM, first compound 0.01 µM) was 37.7% and the viability, T/C [21] was 14.3%. The viability, T/C [22] was 12.5%, the viability, T/C [23] was 5.58% and the viability, T/C [24] was 2.78%.
